The results in this text go back to patent US9738634B2, “Heterocyclic amide compound and herbicide” (SYNGENTA PARTICIPATIONS AG, priority 2013, dated 2017).

Common to all, as to assay type: in vivo
Series [1] has as its system barnyard grass. The series is described as follows: Test Example 1: weedkilling efficacy, preemergent weed treatment in the submerged state; A: barnyard grass. The note with it: treatment dosage 252 g/ha. In short, it runs like this: (§1)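 Submerged pre-emergence treatment, water-surface application of compound emulsion at g/ha dosages; 4 cm flooded alluvial soil, weeds sown and 2.5-leaf rice transplanted same day. Rated after 3 weeks, greenhouse.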

In series [2] the test system is bulrush. The series is described as follows: Test Example 1: weedkilling efficacy, preemergent weed treatment in the submerged state; B: bulrush. The conditions noted are these: treatment dosage 252 g/ha. In outline:
as §1

Series [3] deals with oval-leafed pondweed. The series is described as follows: Test Example 1: weedkilling efficacy, preemergent weed treatment in the submerged state; C: oval-leafed pondweed. The note with it: treatment dosage 252 g/ha. In outline:
as §1

A further series concerns transplanted rice. The series is described as follows: Test Example 1: preemergent weed treatment in the submerged state, effect on crop; a: transplanted rice. The conditions noted are these: treatment dosage 252 g/ha. In outline: as §1
Series [4] has as its system barnyard grass. The series is described as follows: Test Example 2: weedkilling efficacy, growth period weed treatment in the submerged state; A: barnyard grass. The conditions noted are these: treatment dosage 252 g/ha. In short, it runs like this:
(§2)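 Seedlings at 1-2 leaves in 4 cm-deep submerged alluvial soil received emulsion formulations on the water surface, dosed per hectare; effects were judged 3 weeks on.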

Series [5] deals with bulrush. The series is described as follows: Test Example 2: weedkilling efficacy, growth period weed treatment in the submerged state; B: bulrush. The note with it: treatment dosage 252 g/ha. In short, it runs like this: as §2
Series [6] has as its system oval-leafed pondweed. The series is described as follows: Test Example 2: weedkilling efficacy, growth period weed treatment in the submerged state; C: oval-leafed pondweed. The note with it: treatment dosage 252 g/ha. In short, it runs like this:
as §2

The subject of the next series is crabgrass. The series is described as follows: Test Example 3: weedkilling efficacy through soil treatment; D: crabgrass. The note with it: soil treatment, treatment dosage 315 g/ha. The text has this:
(§3) Weedkilling Efficacy Test Through Soil Treatment
(§4) Sterilized diluvial soil was introduced into 21 cm long, 13 cm wide, 7 cm deep plastic boxes, and seeds of crabgrass, green foxtail, barnyard grass, wild oat, black-grass, Italian ryegrass, common wind-grass, Indian mallow, redroot pigweed, fig-leafed goosefoot, chickweed, catchweed, birds-eye speedwell, corn, soybean, rice, wheat, beet and rapeseed were each spot-sown, and covered with about 1.5 cm of soil. Next, emulsions of compounds of the present invention prepared according to compounding example 2 were diluted with water to give the specified dosages, and applied uniformly onto the soil surface with a small sprayer. The plants were grown by placing the plastic boxes in a greenhouse at 25 to 30° C., and 3 weeks after the pesticide treatment the effect on each type of plant was investigated on the basis of the assessment criteria of test example 1.
(§5) A: barnyard grass, B: bulrush, C: oval-leafed pondweed, D: crabgrass, E: green foxtail, F: barnyard grass, G: wild oat, H: black-grass, I: Italian ryegrass, J: common wind-grass, K: Indian mallow, L: redroot pigweed, M: fig-leafed goosefoot, N: chickweed, O: catchweed, p: birds-eye speedwell, a: transplanted rice, b: directly sown rice, c: corn, d: soybean, e: wheat, f: beet, g: rapeseed
(§6) Further, pesticide dosage (g/ha) indicates the concentration regulated such that treatment was with only the stated number of grams (g), when calculated per hectare (ha).

The subject of the next series is green foxtail. The series is described as follows: Test Example 3: weedkilling efficacy through soil treatment; E: green foxtail. The conditions noted are these: soil treatment, treatment dosage 315 g/ha.
Excerpt: as §3, §4, §5, §6

In another series the test system is wild oat. The series is described as follows: Test Example 3: weedkilling efficacy through soil treatment; G: wild oat. The note with it: soil treatment, treatment dosage 315 g/ha.
Excerpt: as §3, §4, §5, §6

For another series, the system named is black-grass. The series is described as follows: Test Example 3: weedkilling efficacy through soil treatment; H: black-grass. The note with it: soil treatment, treatment dosage 315 g/ha.
Excerpt: as §3, §4, §5, §6

In the next series the test system is Italian ryegrass. The series is described as follows: Test Example 3: weedkilling efficacy through soil treatment; I: Italian ryegrass. The note with it: soil treatment, treatment dosage 315 g/ha.
Excerpt: as §3, §4, §5, §6

The subject of a further series is Indian mallow. The series is described as follows: Test Example 3: weedkilling efficacy through soil treatment; K: Indian mallow. The note with it: soil treatment, treatment dosage 315 g/ha.
Excerpt: as §3, §4, §5, §6

The test system of a further series is redroot pigweed. The series is described as follows: Test Example 3: weedkilling efficacy through soil treatment; L: redroot pigweed. The conditions noted are these: soil treatment, treatment dosage 315 g/ha.
Excerpt: as §3, §4, §5, §6

For another series, the system named is fig-leafed goosefoot. The series is described as follows: Test Example 3: weedkilling efficacy through soil treatment; M: fig-leafed goosefoot. The note with it: soil treatment, treatment dosage 315 g/ha.
Excerpt: as §3, §4, §5, §6

The subject of a further series is chickweed. The series is described as follows: Test Example 3: weedkilling efficacy through soil treatment; N: chickweed. The note with it: soil treatment, treatment dosage 315 g/ha.
Excerpt: as §3, §4, §5, §6

The next series concerns directly sown rice. The series is described as follows: Test Example 3: soil treatment, effect on crop; b: directly sown rice. The conditions noted are these: soil treatment, treatment dosage 315 g/ha.
Excerpt: as §3, §4, §5, §6

The subject of the next series is corn. The series is described as follows: Test Example 3: soil treatment, effect on crop; c: corn. The conditions noted are these: soil treatment, treatment dosage 315 g/ha.
Excerpt: as §3, §4, §5, §6

The test system of the next series is soybean. The series is described as follows: Test Example 3: soil treatment, effect on crop; d: soybean. The note with it: soil treatment, treatment dosage 315 g/ha.
Excerpt: as §3, §4, §5, §6

Another series concerns wheat. The series is described as follows: Test Example 3: soil treatment, effect on crop; e: wheat. The conditions noted are these: soil treatment, treatment dosage 315 g/ha.
Excerpt: as §3, §4, §5, §6

For another series, the system named is beet. The series is described as follows: Test Example 3: soil treatment, effect on crop; f: beet. The conditions noted are these: soil treatment, treatment dosage 315 g/ha.
Excerpt: as §3, §4, §5, §6

Another series deals with birds-eye speedwell. The series is described as follows: Test Example 3: weedkilling efficacy through soil treatment; p: birds-eye speedwell. The note with it: soil treatment, treatment dosage 315 g/ha.
Excerpt: as §3, §4, §5, §6

Regarding `CC(C)(C(=O)Nc1cc(C(F)(F)F)cc(Cl)n1)N1COCN(c2ccccc2)C1=O` [A-2-28], the “A: barnyard grass, weed kill grade” value in the series on barnyard grass [1] was 5 (weed kill ratio 90% or more, (practically complete withering)). In addition, the “B: bulrush, weed kill grade” value in the series on bulrush [2] is given as 5 (weed kill ratio 90% or more, (practically complete withering)). Also, in the series with oval-leafed pondweed [3], the “C: oval-leafed pondweed, weed kill grade” value is on record as 5 (weed kill ratio 90% or more, (practically complete withering)). The “a: transplanted rice, effect on crop grade” value in the series on transplanted rice was 2 (weed kill ratio 20% or more, less than 40%). Moreover, the “A (barnyard grass) weedkilling efficacy grade” value with barnyard grass [4] is recorded as 5 (weed kill ratio 90% or more, (practically complete withering)). The “B (bulrush) weedkilling efficacy grade” value in the series on bulrush [5] was 5 (weed kill ratio 90% or more, (practically complete withering)). For the same compound, in the series on oval-leafed pondweed [6], the “C (oval-leafed pondweed) weedkilling efficacy grade” value is on record as 5 (weed kill ratio 90% or more, (practically complete withering)). The “D: crabgrass, weedkilling efficacy grade” value in the series with crabgrass is recorded as 5 (weed kill ratio 90% or more, (practically complete withering)). Also, the “E: green foxtail, weedkilling efficacy grade” value with green foxtail was 5 (weed kill ratio 90% or more, (practically complete withering)). Further, the “G: wild oat, weedkilling efficacy grade” value in the series on wild oat is 5 (weed kill ratio 90% or more, (practically complete withering)). Also, the “H: black-grass, weedkilling efficacy grade” value with black-grass is listed as 5 (weed kill ratio 90% or more, (practically complete withering)). For the same compound, the “I: Italian ryegrass, weedkilling efficacy grade” value in the series with Italian ryegrass is given as 5 (weed kill ratio 90% or more, (practically complete withering)). For the same compound, the “K: Indian mallow, weedkilling efficacy grade” value in the series with Indian mallow is listed as 4 (weed kill ratio 70% or more, less than 90%). Moreover, the “L: redroot pigweed, weedkilling efficacy grade” value in the series with redroot pigweed is 4 (weed kill ratio 70% or more, less than 90%). Moreover, the “M: fig-leafed goosefoot, weedkilling efficacy grade” value in the series with fig-leafed goosefoot is 5 (weed kill ratio 90% or more, (practically complete withering)). In addition, in the series with chickweed, the “N: chickweed, weedkilling efficacy grade” value is 5 (weed kill ratio 90% or more, (practically complete withering)). In the series on directly sown rice, the “b: directly sown rice, effect on crop grade” value is 5 (weed kill ratio 90% or more, (practically complete withering)). In the series on corn, the “c: corn, effect on crop grade” value is recorded as 1 (weed kill ratio 5% or more, less than 20%). Besides, the “d: soybean, effect on crop grade” value in the series on soybean is recorded as 3 (weed kill ratio 40% or more, less than 70%). The “e: wheat, effect on crop grade” value with wheat is listed as 1 (weed kill ratio 5% or more, less than 20%). In addition, the “f: beet, effect on crop grade” value in the series on beet was 5 (weed kill ratio 90% or more, (practically complete withering)).
Regarding `CC(C)(C(=O)Nc1cc(Cl)cc(Cl)n1)N1COCN(c2ccccc2)C1=O` [A-2-17, N-(4,6-dichloropyridin-2-yl)-2-methyl-2-(4-oxo-5-phenyl-1,3,5-oxadiazinan-3-yl) propionamide], the “D: crabgrass, weedkilling efficacy grade” value with crabgrass was 5 (weed kill ratio 90% or more, (practically complete withering)). Also, the “E: green foxtail, weedkilling efficacy grade” value with green foxtail is 5 (weed kill ratio 90% or more, (practically complete withering)). Further, in the series with wild oat, the “G: wild oat, weedkilling efficacy grade” value was 5 (weed kill ratio 90% or more, (practically complete withering)). The “H: black-grass, weedkilling efficacy grade” value with black-grass was 5 (weed kill ratio 90% or more, (practically complete withering)). Further, the “I: Italian ryegrass, weedkilling efficacy grade” value in the series with Italian ryegrass is reported as 5 (weed kill ratio 90% or more, (practically complete withering)). In addition, in the series on Indian mallow, the “K: Indian mallow, weedkilling efficacy grade” value is given as 5 (weed kill ratio 90% or more, (practically complete withering)). Also, in the series on redroot pigweed, the “L: redroot pigweed, weedkilling efficacy grade” value is reported as 5 (weed kill ratio 90% or more, (practically complete withering)). For the same compound, in the series with fig-leafed goosefoot, the “M: fig-leafed goosefoot, weedkilling efficacy grade” value is reported as 5 (weed kill ratio 90% or more, (practically complete withering)). In addition, the “N: chickweed, weedkilling efficacy grade” value with chickweed is 5 (weed kill ratio 90% or more, (practically complete withering)). Also, the “P: birds-eye speedwell, weedkilling efficacy grade” value in the series with birds-eye speedwell was 5 (weed kill ratio 90% or more, (practically complete withering)). Moreover, the “b: directly sown rice, effect on crop grade” value in the series with directly sown rice is 5 (weed kill ratio 90% or more, (practically complete withering)). The “c: corn, effect on crop grade” value in the series on corn is listed as 4 (weed kill ratio 70% or more, less than 90%). In addition, in the series with soybean, the “d: soybean, effect on crop grade” value is reported as 5 (weed kill ratio 90% or more, (practically complete withering)). The “e: wheat, effect on crop grade” value in the series on wheat is 4 (weed kill ratio 70% or more, less than 90%). Besides, the “f: beet, effect on crop grade” value with beet is 5 (weed kill ratio 90% or more, (practically complete withering)).
